Assay results published in patent publication US20200297015A1, “TRYPTOPHAN DERIVATIVES AS SWEETENERS” (CHROMOCELL CORPORATION, priority 2017, published 2020).

Legend:
[1] = tested on: sweetness intensity in humans; experiment: Discriminative sensory evaluation of sweetness intensity, two-alternative forced choice sip and spit (2AFC) in water; assay type: in vivo, human
Experimental: The test compounds were evaluated for sweetness intensity in a aqueous solution in humans using a two-alternative forced choice “sip and spit” method (2AFC).
Preparation of Samples for Sensory Taste Tests: • Control Sample: Sucrose (various levels) • Variant Sample: Compound 1, 5 and 8
The control samples for the discrimination taste test were prepared by dissolving the sucrose directly in water at the indicated test concentrations Variant sample containing Compound 1 was prepared by dissolving Compound i directly in water at the desired concentration. Variant sample containing Compound 5 and 8 were prepared by dissolving the respective sodium salts of the compounds directly in water (refer to Example 4).
The 2AFC test used for compound evaluation was a double blinded and randomized test where taste panelists (n≥12) evaluate a pair of sweetened solutions at a time—one sample is sweetened with sucrose (i.e. control) while the other sample is sweetened with the test compound (i.e. variant). Panelists were instructed not to eat or drink (except water) for at least 1 h before the test. During the test, panelists were instructed to sip each sample, swirl it around their mouth and then expectorate. After tasting each sample in the pair, panelists were instructed to record the sample that is “sweeter” in taste. Panelists cleansed their palates by rinsing with water, eating a cracker and waiting for an interval of about 5 minutes. All samples were tasted at ambient temperatures. Data were analyzed using binomial probabilities.

[2] = Solubility: concentrated stock by conversion to sodium salt form; assay type: physicochemical; details: for concentrated stock compared to the free base form: sodium salt form vs free base form; for concentrated solution prepared: sodium salt form, with 5.5% by weight sodium hydroxide in de-ionized water, vortex and sonication 30-120 s
Text: Compounds 5 and 8 have been prepared at an increased concentration for commercial applications by converting them into their respective sodium salt forms. The process of converting to a salt form was obtained by dissolving the Compounds in water and adding a set quantity of sodium hydroxide or potassium hydroxide solution. A concentrated solution of 30% by weight of Compound 5 and 8 has been prepared by this method. This has been achieved by combining 30%, by weight, of Compound 5 or Compound 8 with 5.5%, by weight, of sodium hydroxide in de-ionized water. The mixture is subjected to intermittent vortex and sonication for a duration of 30-120 s. This process achieves a 300 times concentrated stock compared to the free base form of Compound 5 and 8, thereby enabling delivery of an increased concentration of the compounds in a model beverage/matrix. The sodium/potassium salt can increase solubility by changing neutral zwitterion to more hydrophilic negative charged anion.

[3] = tested on: sweetness intensity (expert tasters); experiment: Sweetness potency comparison vs D-Tryptophan, paired comparison by expert tasters; assay type: in vivo, human; details: in water, n>5
Experimental: The sweetness potency of the test compound was compared D-Tryptophan to understand potency differences between the test compound and non-methylated variants of D-tryptophan.
(§1) Preparation of Samples for Taste Tests: • Control Sample: 250 ppm, 500 ppm and 1000 ppm of D-Tryptophan • Variant Sample: 250 ppm, 500 ppm and 1000 ppm of Compound 5 Samples for the taste test were prepared by dissolving, both the control and variant samples, directly in water at the desired test concentrations.
Expert tasters (n>5) tasted the control and test samples in a blinded experiment and assessed sweetness intensity (at the same concentration) via paired comparison. Each taster evaluated a pair of sweetened solutions at a time—one sample is sweetened with Control compound (i.e. control) while the other sample is sweetened with the test compound (i.e. variant). After tasting each sample in the pair, tasters were instructed to record the sample that is “sweeter” in taste. All samples were tasted at ambient temperatures.

[4] = tested on: sweetness intensity (expert tasters); experiment: Reference scaling of sweetness intensity against sucrose references by expert tasters; assay type: in vivo, human; details: for Sweetness Intensity (avg): @ 1000 ppm, ranked against sucrose references (5%, 7.5%, 10%), n>5
Experimental: as §1
In another test, expert tasters (n>5) also tasted Compound 5 and Control Samples to a set of sucrose references (5%, 7.5%, 10%) and ranked the Test and Control samples for sweetness intensity compared to sucrose references. At the same concentration, Compound 5 achieves higher (close to 2 fold) potency compared to Control compound.

[5] = tested on: perception of sweet taste in humans; experiment: Descriptive Analysis (DA) sensory evaluation by trained panel, aqueous matrix; assay type: in vivo, human; details: for Bitter @ 18 sec / Bitter @ 1 min / Bitter @ 1 min 30 s / Bitter @2 min / Bitter @3 min / Sweet @ 18 sec / Sweet @ 1 min / Sweet @ 1 min 30 s / Sweet @ 2 min: intensity on 15 cm scale; for Bitter @ 18 sec / Bitter @ 1 min / Bitter @ 1 min 30 s / Bitter @2 min / Bitter @3 min / Sweet @ 18 sec / Sweet @ 1 min / Sweet @ 1 min 30 s / Sweet @ 2 min / Sweet AT: in water, 500 ppm Rebaudioside M (control), 1500 ppm Compound 5 (variant), n≥12; for Sweet AT: sweet appearance time
Experimental: The effect of the test compound on the perception of sweet taste in an aqueous matrix was evaluated using a descriptive analysis methodology with a group of trained panelists, as follows.
Preparation of Samples for Sensory Taste Tests: • Control Sample: 500 ppm Rebaudioside M • Variant Sample: 1500 ppm Compound 5 Samples for the descriptive analysis taste test were prepared by dissolving, both the control and variant samples, directly in water at the desired test concentrations.
The taste test panelists used in Example I were selected using a sensory acuity screening program and then trained in descriptive analysis taste testing. Candidate panelists were recruited, with prescreening and personal interviews, and were assessed for their ability to detect, recognize and differentiate basic taste attributes or mixtures thereof as part of a standardized acuity test. These candidate panelists were also assessed for their innate ability to identify flavors, and to rank on intensity scales. Other senses such as smell and vision were also included as part of the assessment. Candidates also were screened for their ability to use the language to describe and articulate ideas.
The method was performed as a double blinded, randomized test, where trained Descriptive Analysis taste panelists (n≥12) profiled the maximum intensity perceived at 18 seconds, of the control sample and the variant sample for the following 3 attributes; sweet, bitter and sweet appearance time. In addition to the maximum intensity, the panelists continued to assess sweet and bitter intensity (at 1 min, 1.5 min, 2 min, and 3 min), to generate a discontinuous time scale Intensity profile (TSI) of sweet and bitter percepts to gain an understanding of the taste profile of the control and variant samples. Each panelist scored sweetness intensity on a 15 cm scale, with the control and variant sample being determined to be iso-sweet by ANOVA at 18 seconds.

sweet taste = details: Optimising Sweet Taste in Foods, 2006; cited from earlier work

| concentrated stock compared to the free base form [2] [times] | concentrated solution prepared [2] [% by weight] | SMILES | Sweetness Intensity (avg) [4] [% Sucrose equivalent] | Bitter @ 18 sec [5] | Bitter @ 1 min [5] | Bitter @ 1 min 30 s [5] | Bitter @2 min [5] | Bitter @3 min [5] | Sweet @ 18 sec [5] | Sweet @ 1 min [5] | Sweet @ 1 min 30 s [5] | Sweet @ 2 min [5] | Sweet AT [5] | other results |
| --- | --- | --- | --- | --- | --- | --- | --- | --- | --- | --- | --- | --- | --- | --- |
|  |  | Cc1cccc2[nH]cc(CC(N)C(=O)O)c12 (centres unmarked) [Compound 1, 2-amino-3-(4-methyl-1H-indol-3-yl)propanoic acid] |  |  |  |  |  |  |  |  |  |  |  | Number picking Variant ([1]; Compound 1 @ 1000 ppm vs 10% Sucrose, in water, Total Number 38): 25 |
| 300 | 30 | Cc1[nH]c2ccccc2c1C[C@@H](N)C(=O)O [Compound 8, (R)-2-amino-3-(2-methyl-1H-indol-3-yl)propanoic acid] |  |  |  |  |  |  |  |  |  |  |  | Number picking Variant ([1]; Compound 8 @ 3000 ppm (sodium salt dissolved in water) vs 8% Sucrose, Total Number 20): 11 |
| 300 | 30 | Cc1ccc2[nH]cc(C[C@@H](N)C(=O)O)c2c1 [Compound 5, (R)-2-amino-3-(5-methyl-1H-indol-3-yl)propanoic acid] | 9.25 | 2.2 | 1.2 | 0.5 | 0.1 | 0.1 | 10.8 | 6.5 | 4.6 | 3 | 4.8 | % picking Test as “sweeter” ([3]; Compound 5 @ 250 ppm vs Control (D-Tryptophan) @ 250 ppm): 100%; % picking Test as “sweeter” ([3]; Compound 5 @ 500 ppm vs Control (D-Tryptophan) @ 500 ppm): 100%; % picking Test as “sweeter” ([3]; Compound 5 @ 1000 ppm vs Control (D-Tryptophan) @ 1000 ppm): 100%; Number picking Variant ([1]; Compound 5 @ 2000 ppm (sodium salt dissolved in water) vs 12% Sucrose, Total Number 38): 26; potency compared to Control compound ([4]; at the same concentration, Control = D-Tryptophan): ~2 fold; lingering effects, sweet and bitter, as compared to the Rebaudioside M sample ([5]; by ANOVA, at multiple time points, 1500 ppm Compound 5 vs 500 ppm Rebaudioside M): significantly less |
|  |  | C=C1C[C@@]23CC[C@H]4[C@@](C)(CCC[C@@]4(C)C(=O)O[C@@H]4O[C@H](CO)[C@@H](O)[C@H](O[C@@H]5O[C@H](CO)[C@@H](O)[C@H](O)[C@H]5O)[C@H]4O[C@@H]4O[C@H](CO)[C@@H](O)[C@H](O)[C@H]4O)[C@@H]2CC[C@]1(O[C@@H]1O[C@H](CO)[C@@H](O)[C@H](O[C@@H]2O[C@H](CO)[C@@H](O)[C@H](O)[C@H]2O)[C@H]1O[C@@H]1O[C@H](CO)[C@@H](O)[C@H](O)[C@H]1O)C3 [Rebaudioside M, reference compound] |  | 3.3 | 2.2 | 1.4 | 0.7 | 0.3 | 10.7 | 7.2 | 5.3 | 3.6 | 5.9 |  |
|  |  | N[C@H](Cc1c[nH]c2ccccc12)C(=O)O [Control, D-Tryptophan, reference compound] | 5.83 |  |  |  |  |  |  |  |  |  |  |  |
|  |  | N[C@H](Cc1c[nH]c2cc(Cl)ccc12)C(=O)O [6-chloro-D-tryptophan] |  |  |  |  |  |  |  |  |  |  |  | sweeter than sucrose (sweet taste): 1000 times |
